Experiments:
Format in all cases: in vivo
Details in all cases: 250 g/ha, evaluated after 13 days
[1] = system: Echinochloa crus-galli (ECHCG); assay: Pre-emergence herbicide glasshouse test
Summary of the method: (§1)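 Species sown in standard soil and sprayed 1 day (pre-emergence) or 8 days (post-emergence) after sowing, at 250 g/ha unless noted, in acetone/water (50:50) with 0.5% Tween 20. Glasshouse at 24/16 °C day/night, 14 h light, 65% humidity. Percentage damage scored after 13 days on a 1–5 scale (5=81–100%, 1=0–20%).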

[2] = system: Amaranthus retoflexus (AMARE); assay: Pre-emergence herbicide glasshouse test
Summary of the method: as §1

[3] = system: Amaranthus palmeri (AMAPA); assay: Pre-emergence herbicide glasshouse test
Summary of the method: as §1

[4] = system: Ipomoea hederacea (IPOHE); assay: Pre-emergence herbicide glasshouse test
Summary of the method: as §1

[5] = system: Echinochloa crus-galli (ECHCG); assay: Post-emergence herbicide glasshouse test
Summary of the method: as §1

[6] = system: Amaranthus retoflexus (AMARE); assay: Post-emergence herbicide glasshouse test
Summary of the method: as §1

[7] = system: Amaranthus palmeri (AMAPA); assay: Post-emergence herbicide glasshouse test
Summary of the method: as §1

[8] = system: Ipomoea hederacea (IPOHE); assay: Post-emergence herbicide glasshouse test
Summary of the method: as §1

| Compound | percentage damage caused to the plant, ECHCG (five-point scale) [1] | percentage damage caused to the plant, AMARE (five-point scale) [2] | percentage damage caused to the plant, AMAPA (five-point scale) [3] | percentage damage caused to the plant, IPOHE (five-point scale) [4] | percentage damage caused to the plant, ECHCG (five-point scale) [5] | percentage damage caused to the plant, AMARE (five-point scale) [6] | percentage damage caused to the plant, AMAPA (five-point scale) [7] | percentage damage caused to the plant, IPOHE (five-point scale) [8] |
| --- | --- | --- | --- | --- | --- | --- | --- | --- |
| Fc1ncc(-c2nc(C(F)(F)F)cn2Cc2ccc(Cl)s2)cc1Cl [Compound 1.152] | 3 (3=41-60%) | 5 (5=81-100%) | 5 (5=81-100%) | 1 (1=0-20%) | 1 (1=0-20%) | 5 (5=81-100%) | 5 (5=81-100%) | 2 (2=21-40%) |
| Cn1ccc(Cn2cc(C(F)(F)F)nc2-c2cnc(F)c(Cl)c2)n1 [Compound 1.153] | 5 (5=81-100%) | 5 (5=81-100%) | 5 (5=81-100%) | 5 (5=81-100%) | 5 (5=81-100%) | 5 (5=81-100%) | 5 (5=81-100%) | 4 (4=61-80%) |
| Cc1cc(Cn2cc(C(F)(F)F)nc2-c2cnc(F)c(Cl)c2)ns1 [Compound 1.154] | 5 (5=81-100%) | 5 (5=81-100%) | 5 (5=81-100%) | 5 (5=81-100%) | 5 (5=81-100%) | 5 (5=81-100%) | 5 (5=81-100%) | 4 (4=61-80%) |
| Cc1nc(Cn2cc(C(F)(F)F)nc2-c2ccc(S(C)(=O)=O)cc2)no1 [Compound 1.159] | 1 (1=0-20%) | 5 (5=81-100%) | 5 (5=81-100%) | 5 (5=81-100%) | 2 (2=21-40%) | 5 (5=81-100%) | 5 (5=81-100%) | 5 (5=81-100%) |
| Cc1nc(Cn2cc(C(F)(F)F)nc2-c2cnc(F)c(Cl)c2)no1 [Compound 1.160] | 5 (5=81-100%) | 5 (5=81-100%) | 5 (5=81-100%) | 5 (5=81-100%) | 5 (5=81-100%) | 5 (5=81-100%) | 5 (5=81-100%) | 4 (4=61-80%) |
| Cc1cc(Cn2cc(C(F)(F)F)nc2-c2ccc(S(C)(=O)=O)cc2)ns1 [Compound 1.161] | 5 (5=81-100%) | 5 (5=81-100%) | 5 (5=81-100%) | 5 (5=81-100%) | 5 (5=81-100%) | 5 (5=81-100%) | 5 (5=81-100%) | 5 (5=81-100%) |
| Cc1cc(Cn2cc(C(F)(F)F)nc2-c2ccc(F)c(F)c2)ns1 [Compound 1.162] | 5 (5=81-100%) | 5 (5=81-100%) | 5 (5=81-100%) | 3 (3=41-60%) | 5 (5=81-100%) | 5 (5=81-100%) | 5 (5=81-100%) | 4 (4=61-80%) |
| Cc1cc(Cn2cc(C(F)(F)F)nc2-c2cnc(F)c(Cl)c2)no1 [Compound 1.163] | 5 (5=81-100%) | 5 (5=81-100%) | 5 (5=81-100%) | 5 (5=81-100%) | 5 (5=81-100%) | 5 (5=81-100%) | 5 (5=81-100%) | 4 (4=61-80%) |
| Cc1nnc(Cn2cc(C(F)(F)F)nc2-c2cnc(F)c(Cl)c2)s1 [Compound 1.164] | 4 (4=61-80%) | 5 (5=81-100%) | 5 (5=81-100%) | 5 (5=81-100%) | 2 (2=21-40%) | 5 (5=81-100%) | 4 (4=61-80%) | 3 (3=41-60%) |
| Cn1cnc(Cn2cc(C(F)(F)F)nc2-c2cnc(F)c(Cl)c2)n1 [Compound 1.165] | 5 (5=81-100%) | 5 (5=81-100%) | 5 (5=81-100%) | 5 (5=81-100%) | 5 (5=81-100%) | 5 (5=81-100%) | 5 (5=81-100%) | 5 (5=81-100%) |
| Cc1noc(Cn2cc(C(F)(F)F)nc2-c2cnc(Cl)c(F)c2)n1 [Compound 1.166] | 1 (1=0-20%) | 5 (5=81-100%) | 5 (5=81-100%) | 5 (5=81-100%) | 1 (1=0-20%) | 4 (4=61-80%) | 4 (4=61-80%) | 2 (2=21-40%) |

Source: patent publication US20260125360A1, “HERBICIDAL IMIDAZOLE COMPOUNDS” (SYNGENTA CROP PROTECTION AG, priority 2022, published 2026)
